According to PubChem BioAssay AID222 (DTP/NCI, 2004):
Values joined by “and” are separate entries in the source; they are usually repeats but may differ in a detail not shown here. Equal values may be shown once. Toxic doses and inconclusive results are not listed.

System: C57BL/6 mice, intracerebral ependymoblastoma, median survival T/C
Assay: NCI In Vivo Anticancer Drug Screen. Data for tumor model Ependymoblastoma (intracerebral) in C57BL/6 mice
Conditions: endpoint: median survival time, higher = longer survival
Experimental: The antitumor activity of compounds was measured in mice bearing transplantable tumors. Survival or tumor size were measured and the results are expressed as the measurement made in the treated group (T) divided by the measurement made in the vehicle treated control group (C). The tumor model used in this assay is Ependymoblastoma (intracerebral) in C57BL/6 mice

[1] = dose: 8.0 mg/kg/injection, schedule: Q01DX005 (ip), vehicle: Klucel (hydroxypropylcellulose) (HPC)
[2] = dose: 32.0 mg/kg/injection, schedule: Q01DX005 (ip), vehicle: Klucel (hydroxypropylcellulose) (HPC)
[3] = dose: 16.0 mg/kg/injection, schedule: Q#A X002 (ip), vehicle: saline
[4] = dose: 32.0 mg/kg/injection, schedule: Q#A X002 (ip), vehicle: saline

## O=P1(NCCCl)OCCCN1CCCl (configuration not stated)
dose: 6.25 mg/kg/injection, schedule: Q01DX005 (ip), vehicle: saline
  T/C: 122 % of control
dose: 12.5 mg/kg/injection, schedule: Q01DX005 (ip), vehicle: saline
  T/C: 110 % of control
dose: 25.0 mg/kg/injection, schedule: Q01DX005 (ip), vehicle: saline
  T/C: 114 % of control
dose: 25.0 mg/kg/injection, schedule: Q01DX005 (ip), vehicle: water
  T/C: 92 % of control and 117 % of control
dose: 50.0 mg/kg/injection, schedule: Q01DX001 (ip), vehicle: water
  T/C: 96 % of control
dose: 50.0 mg/kg/injection, schedule: Q01DX005 (ip), vehicle: water
  T/C: 90 % of control
dose: 100.0 mg/kg/injection, schedule: Q01DX001 (ip), vehicle: water
  T/C: 106 % of control
dose: 100.0 mg/kg/injection, schedule: Q01DX005 (ip), vehicle: water
  T/C: 106 % of control and 123 % of control
dose: 200.0 mg/kg/injection, schedule: Q01DX001 (ip), vehicle: water
  T/C: 119 % of control
dose: 200.0 mg/kg/injection, schedule: Q01DX005 (ip), vehicle: water
  T/C: 116 % of control

## O=c1ccc2ccccc2o1
dose: 90.0 mg/kg/injection, schedule: Q01DX005 (ip), vehicle: saline with Tween-80
  T/C: 101 % of control
dose: 180.0 mg/kg/injection, schedule: Q01DX005 (ip), vehicle: saline with Tween-80
  T/C: 86 % of control
dose: 720.0 mg/kg/injection, schedule: Q01DX005 (ip), vehicle: saline with Tween-80
  T/C: 97 % of control

## Nc1ncnc2c1ncn2C1OC(COP(=O)(O)O)C(O)C1O (configuration not stated)
dose: 100.0 mg/kg/injection, schedule: Q01DX005 (ip), vehicle: saline
  T/C: 104 % of control
dose: 200.0 mg/kg/injection, schedule: Q01DX005 (ip), vehicle: saline
  T/C: 100 % of control
dose: 800.0 mg/kg/injection, schedule: Q01DX005 (ip), vehicle: saline
  T/C: 119 % of control

## C(COCCOCC1CO1)OCCOCC1CO1 (configuration not stated)
dose: 50.0 mg/kg/injection, schedule: Q01DX005 (ip), vehicle: saline with Tween-80
  T/C: 93 % of control
dose: 100.0 mg/kg/injection, schedule: Q01DX005 (ip), vehicle: saline with Tween-80
  T/C: 96 % of control
dose: 200.0 mg/kg/injection, schedule: Q01DX005 (ip), vehicle: saline with Tween-80
  T/C: 96 % of control
dose: 400.0 mg/kg/injection, schedule: Q01DX005 (ip), vehicle: saline with Tween-80
  T/C: 113 % of control

## Clc1ccc(C(c2ccc(Cl)cc2)C(Cl)(Cl)Cl)cc1
[1]
  T/C: 92 % of control
dose: 16.0 mg/kg/injection, schedule: Q01DX005 (ip), vehicle: Klucel (hydroxypropylcellulose) (HPC)
  T/C: 101 % of control
[2]
  T/C: 96 % of control

## COc1cc2cc3c4cc(OC)c(OC)cc4cc[n+]3c(C)c2cc1OC (tested in a mixture with another compound)
dose: 8.0 mg/kg/injection, schedule: Q01DX001 (ip), vehicle: saline
  T/C: 98 % of control
dose: 16.0 mg/kg/injection, schedule: Q01DX001 (ip), vehicle: saline
  T/C: 91 % of control
[3]
  T/C: 94 % of control
dose: 32.0 mg/kg/injection, schedule: Q01DX001 (ip), vehicle: saline
  T/C: 90 % of control
[2]
  T/C: 89 % of control
[4]
  T/C: 97 % of control and 105 % of control
dose: 64.0 mg/kg/injection, schedule: Q01DX001 (oral), vehicle: saline
  T/C: 100 % of control and 104 % of control
dose: 64.0 mg/kg/injection, schedule: Q01DX005 (ip), vehicle: Klucel (hydroxypropylcellulose) (HPC)
  T/C: 103 % of control and 107 % of control
dose: 64.0 mg/kg/injection, schedule: Q#A X002 (ip), vehicle: saline
  T/C: 111 % of control
dose: 128.0 mg/kg/injection, schedule: Q01DX001 (oral), vehicle: saline
  T/C: 100 % of control and 103 % of control
dose: 128.0 mg/kg/injection, schedule: Q01DX005 (ip), vehicle: Klucel (hydroxypropylcellulose) (HPC)
  T/C: 118 % of control and 121 % of control
dose: 128.0 mg/kg/injection, schedule: Q#A X002 (ip), vehicle: saline
  T/C: 103 % of control and 106 % of control
dose: 256.0 mg/kg/injection, schedule: Q01DX001 (ip), vehicle: saline
  T/C: 87 % of control
dose: 256.0 mg/kg/injection, schedule: Q01DX001 (oral), vehicle: saline
  T/C: 88 % of control and 103 % of control
dose: 256.0 mg/kg/injection, schedule: Q01DX005 (ip), vehicle: Klucel (hydroxypropylcellulose) (HPC)
  T/C: 118 % of control
dose: 256.0 mg/kg/injection, schedule: Q#A X002 (ip), vehicle: saline
  T/C: 87 % of control and 98 % of control
dose: 512.0 mg/kg/injection, schedule: Q01DX001 (oral), vehicle: saline
  T/C: 100 % of control and 102 % of control
dose: 1024.0 mg/kg/injection, schedule: Q01DX001 (oral), vehicle: saline
  T/C: 100 % of control and 107 % of control

## O=NN(CCCl)C(=O)NC1CCC(=O)NC1=O (configuration not stated)
dose: 0.5 mg/kg/injection, schedule: Q01DX005 (ip), vehicle: Klucel (hydroxypropylcellulose) (HPC)
  T/C: 103 % of control
dose: 0.5 mg/kg/injection, schedule: Q01DX005 (ip), vehicle: suspension in saline
  T/C: 118 % of control
dose: 0.62 mg/kg/injection, schedule: Q01DX001 (ip), vehicle: other
  T/C: 100 % of control
dose: 1.0 mg/kg/injection, schedule: Q01DX005 (ip), vehicle: Klucel (hydroxypropylcellulose) (HPC)
  T/C: 100 % of control
dose: 1.0 mg/kg/injection, schedule: Q01DX005 (ip), vehicle: suspension in saline
  T/C: 114 % of control
dose: 1.25 mg/kg/injection, schedule: Q01DX001 (ip), vehicle: other
  T/C: 101 % of control
dose: 1.75 mg/kg/injection, schedule: Q01DX001 (ip), vehicle: other
  T/C: 104 % of control
dose: 2.0 mg/kg/injection, schedule: Q#A X002 (ip), vehicle: saline
  T/C: 100 % of control and 111 % of control
dose: 2.5 mg/kg/injection, schedule: Q01DX001 (ip), vehicle: other
  T/C: 100 % of control
dose: 3.5 mg/kg/injection, schedule: Q01DX001 (ip), vehicle: other
  T/C: 102 % of control and 104 % of control
dose: 3.5 mg/kg/injection, schedule: Q01DX001 (ip), vehicle: saline with Tween-80
  T/C: 95 % of control
dose: 4.0 mg/kg/injection, schedule: Q01DX001 (ip), vehicle: saline with Tween-80
  T/C: 106 % of control
dose: 4.0 mg/kg/injection, schedule: Q01DX005 (ip), vehicle: Klucel (hydroxypropylcellulose) (HPC)
  T/C: 290 % of control
dose: 4.0 mg/kg/injection, schedule: Q01DX005 (ip), vehicle: suspension in saline
  T/C: 298 % of control
dose: 4.0 mg/kg/injection, schedule: Q#A X002 (ip), vehicle: saline
  T/C: 98 % of control and 99 % of control
dose: 5.0 mg/kg/injection, schedule: Q01DX001 (ip), vehicle: other
  T/C: 119 % of control
dose: 5.0 mg/kg/injection, schedule: Q01DX001 (oral), vehicle: other
  T/C: 161 % of control
dose: 7.0 mg/kg/injection, schedule: Q01DX001 (ip), vehicle: other
  T/C: 113 % of control and 119 % of control
dose: 8.0 mg/kg/injection, schedule: Q01DX001 (ip), vehicle: saline with Tween-80
  T/C: 106 % of control
[1]
  T/C: 281 % of control
dose: 8.0 mg/kg/injection, schedule: Q#A X002 (ip), vehicle: saline
  T/C: 102 % of control
dose: 10.0 mg/kg/injection, schedule: Q01DX001 (ip), vehicle: other
  T/C: 162 % of control
dose: 10.0 mg/kg/injection, schedule: Q01DX001 (oral), vehicle: other
  T/C: 210 % of control
dose: 10.0 mg/kg/injection, schedule: Q07DX003 (ip), vehicle: saline
  T/C: 318 % of control
dose: 14.0 mg/kg/injection, schedule: Q01DX001 (ip), vehicle: saline with Tween-80
  T/C: 102 % of control
dose: 16.0 mg/kg/injection, schedule: Q01DX001 (ip), vehicle: saline with Tween-80
  T/C: 104 % of control
dose: 16.0 mg/kg/injection, schedule: Q01DX001 (oral), vehicle: Klucel (hydroxypropylcellulose) (HPC)
  T/C: 106 % of control
[3]
  T/C: 102 % of control and 112 % of control
dose: 20.0 mg/kg/injection, schedule: Q01DX001 (oral), vehicle: other
  T/C: 90 % of control
dose: 20.0 mg/kg/injection, schedule: Q07DX003 (ip), vehicle: saline
  T/C: 117 % of control
dose: 28.0 mg/kg/injection, schedule: Q01DX001 (ip), vehicle: other
  T/C: 100 % of control and 103 % of control
dose: 28.0 mg/kg/injection, schedule: Q01DX001 (ip), vehicle: saline with Tween-80
  T/C: 93 % of control
dose: 32.0 mg/kg/injection, schedule: Q01DX001 (ip), vehicle: saline with Tween-80
  T/C: 105 % of control
dose: 32.0 mg/kg/injection, schedule: Q01DX001 (oral), vehicle: Klucel (hydroxypropylcellulose) (HPC)
  T/C: 102 % of control
[4]
  T/C: 100 % of control
dose: 56.0 mg/kg/injection, schedule: Q01DX001 (ip), vehicle: other
  T/C: 88 % of control
dose: 56.0 mg/kg/injection, schedule: Q01DX001 (ip), vehicle: saline with Tween-80
  T/C: 93 % of control
dose: 64.0 mg/kg/injection, schedule: Q01DX001 (ip), vehicle: saline with Tween-80
  T/C: 109 % of control
dose: 64.0 mg/kg/injection, schedule: Q01DX001 (oral), vehicle: Klucel (hydroxypropylcellulose) (HPC)
  T/C: 100 % of control
dose: 128.0 mg/kg/injection, schedule: Q01DX001 (oral), vehicle: Klucel (hydroxypropylcellulose) (HPC)
  T/C: 102 % of control
dose: 256.0 mg/kg/injection, schedule: Q01DX001 (oral), vehicle: Klucel (hydroxypropylcellulose) (HPC)
  T/C: 104 % of control
